These results are taken from patent US4691017A, “2-hydroxy-and 2-halo-ethylthiopyridine intermediates for preparing antiulcer compounds” (Richter Gedeon Vegyeszeti Gyar Rt., priority 1984, dated 1987).

SMILES strings stand for the structures. Structures can show the parent of a compound that is named as a salt. Where two headings read alike, the source gives them in different places.

One assay has as its system Antral ulcer. Put plainly: Indomethacin-induced antral ulceration. It is filed as in vivo, Female RG-Wistar rats. Here is the method:
Indomethacin-induced antral and intestinal ulceration
Female RG-Wistar rats weighing 120 to 150 g. each were fasted for 24 hours. Water was added ad libitum. The animals were then given access to food for one hour, and 30 minutes after the administration of the test compounds a 15-mg./kg. oral dose of indomethacin was administered. 24 hours after indomethacin treatment the animals were killed by overdose of ether. Stomachs and the entire intestine were removed, the stomachs were opened along the main curvature, and the total ulcerated area (ulceration index, mm^2) was determined.

For another assay, the system named is Intestinal ulcer. Kind of assay: Indomethacin-induced intestinal ulceration (inflation technique). The assay is classed as in vivo, Female RG-Wistar rats.
The test system of assay [1] is Gastric necrosis (gastric oedema and haemorrhagic injury). Kind of assay: Gastric necrosis induced by acidic ethanol (cytoprotective activity). The assay is classed as in vivo, Female RG-Wistar rats. To be noted: for ED50: Rattus norvegicus, po, 1 h, acidic ethanol, p.o. Here is the method: Water was given ad libitum. […] One hour later the animals were killed by overdosing with ether. Stomachs were removed and opened along the major curvature. After cleaning the wet weight of the stomachs was determined, and the difference between the wet weight obtained and the wet weight of the stomachs of untreated (control) animals was calculated, in order to determine the degree of gastric oedema. The stomachs were then dried and the gastic lesions were observed visually. Lengths of lesions were measured in millimeters. (Derelanko and Long, Proc. Soc. Exp. Biol. and Med. 166, 394 (1981)), and the length of the average lesions per stomach was given. Degree of cytoprotection was expressed in % related to the control. The statistical evaluation of the results was carried out by the Student test.

Assay [2] concerns Aspirin-induced gastric ulceration. Put plainly: Inhibition of aspirin-induced gastric ulceration. The assay is classed as in vivo, Female H. Wistar rats. Here is the method: Inhibition of aspirin-induced gastric ulceration
Female H. Wistar rats weighing 120 to 150 g each were fasted for 24 hours. Water was given ad libitum. The stomach ulcer was induced by oral administration of aspirin in a dose of 100 mg./kg. (in Tween 80 suspension). The test was given simultaneously with the administration of aspirin, orally. The animals were killed by overdose if ether, 4 hours after treatment. The stomach was excised and cut along the large curvature. The red-brownish erosions on the glandular surface were counted. When evaluating the test results, the number of ulcers per stomach and its proportion to the number of ulcers found in the stomachs of control animals (inhibition of ulceration) were determined.

The subject of another assay is Gastric acid secretion. Kind of assay: Gastric acid secretion inhibiting activity on Shay rats. It is filed as in vivo, Female H-Wistar rats. Here is the method: Gastric acid secretion inhibiting activity on Shay rats (Gastroenterology, 5, 43-46 (1945)
Female H-Wistar rats weighing 120-150 g each were fasted for 24 hours. Water was added ad libitum. The pylorus of the animals was ligated under light ether narcosis. The test drugs were administered during the operation, partially orally, partially intraperitoneally. 4 hours after treatment the animals were killed by an overdose of ether. The stomach was excised and cut along the large curvature. The volume and the pH of the contents were determined and in each case the HCl production was determined by titration.

[3] abbreviates: indomethacin 15 mg./kg. p.o. with 25 mg./kg. p.o. test compound.
Where [4] appears, read: indomethacin 15 mg./kg. p.o. with 25 mg./kg. p.o. test compound, N 20.
[5] abbreviates: read-out: Gastric oedema inhibition ED50.
Where [6] appears, read: read-out: Haemorrhagic injury inhibition ED50.
Where [7] appears, read: indomethacin 15 mg./kg. p.o. with 50 mg./kg. p.o. test compound.
[8] abbreviates: indomethacin 15 mg./kg. p.o. with 5 mg./kg. p.o. test compound.

Regarding `CN1CCN(CC(=O)N2c3ccccc3C(=O)Nc3cccnc32)CC1` [Pirenzepine, reference compound], the “Antral ulcer, ulceration index” value in the assay on Antral ulcer (setting [3]) was 12.0 mm^2 /stomach. In addition, the “Antral ulcer, rats having no ulcer” value with Antral ulcer (setting [4]) is 5. For the same compound, the “Intestinal ulcer, tensile strength 24 hours after indomethacin treatment” value (from here on “Intestinal ulcer”) in the assay with Intestinal ulcer (setting [3]) turned out to be 152 ± 8 mmHg.

For orientation: ED50 means the dose at which the effect has come halfway, by size or by number of responders. Consider `CC(=O)N(CCSc1ncccc1C(=O)c1ccccc1)C(C)=O` [B, 3-benzoyl-2-{[2-(N,N-diacetylamino)-ethyl]-thio}-pyridine], for which the ED50 is 1 mg/kg in assay [1] (setting [5]) and 2 mg/kg in assay [1] (setting [6]).

With `CN/C(=N/CCSCc1nc[nH]c1C)NC#N` [cimetidine, reference compound], in the assay with Antral ulcer (setting [7]), the “Antral ulcer, ulceration index” value amounted to 14.7 mm^2 /stomach. In the assay with Antral ulcer (indomethacin 15 mg./kg. p.o. with 50 mg./kg. p.o. test compound, N 10), the “Antral ulcer, rats having no ulcer” value turned out to be 2. In addition, the Haemorrhagic injury in assay [1] (25 mg./kg. p.o.) turned out to be 82 ± 21 mm; in assay [1] (100 mg./kg. p.o.) it was 42 ± 13 mm. For the same compound, the Haemorrhagic injury inhibition in assay [1] (25 mg./kg. p.o.) was 2%; in assay [1] (100 mg./kg. p.o.), 46%. For the same compound, the Oedema in assay [1] (25 mg./kg. p.o., N 8) was determined as 441 ± 82 mg; in assay [1] (100 mg./kg. p.o., N 8), 301 ± 42 mg. Moreover, the Oedema inhibition in assay [1] (100 mg./kg. p.o.) came to 21%. Further, the “Intestinal ulcer” value in the assay with Intestinal ulcer (setting [7]) is given as 161 ± 8 mmHg.

As to `Cc1ccc(C)c(C(=O)c2cccnc2SCCN)c1` [D, 2-[(2-aminoethyl)-thio]-3-(2,5-dimethylbenzoyl)pyridine.HCl], the ED50 in assay [1] (setting [5]) and in assay [1] (setting [6]) was 10 mg/kg throughout.

For the compound `CCCc1cc(C(=O)c2ccccc2)cc(SCCN)n1` [Compound E, 2-[(2-aminoethyl)-thio]-4-benzoyl-6-propylpyridine.2 HCl], the ED50 in assay [1] (setting [5]) was determined as 20 mg/kg; in assay [1] (setting [6]), 25 mg/kg.

Turning to `NCCSc1ncccc1C(=O)c1ccc(Cl)cc1` [C, 2-[(2-aminoethyl)-thio]-3-(p-chlorobenzoyl)-pyridine.HCl], the ED50 in assay [1] (setting [5]) turned out to be 10 mg/kg; in assay [1] (setting [6]) it was 15 mg/kg.

In the case of `NCCSc1ncccc1C(=O)c1ccccc1` [Compound A, 2-[(2-aminoethyl)-thio]-3-benzoyl-pyridine.HCl], the “Antral ulcer, ulceration index” value stood at 18.9 mm^2 /stomach in the assay on Antral ulcer (setting [8]) and 4.0 mm^2 /stomach in the assay on Antral ulcer (setting [3]). Moreover, the “Antral ulcer, rats having no ulcer” value with Antral ulcer (indomethacin 15 mg./kg. p.o. with 5 mg./kg. p.o. test compound, N 15) is listed as 3; in the assay with Antral ulcer (setting [4]), 12. Moreover, the Haemorrhagic injury in assay [1] (0.05 mg./kg. p.o.) is on record as 48 ± 19 mm; in assay [1] (0.1 mg./kg. p.o.), 38 ± 18 mm; in assay [1] (1.0 mg./kg. p.o.), 5 ± 1.5 mm; in assay [1] (10.0 mg./kg. p.o.), 6 ± 3 mm. Further, the Haemorrhagic injury inhibition in assay [1] (0.05 mg./kg. p.o.) worked out at 45%; in assay [1] (0.1 mg./kg. p.o., p < 0.05), 56%; in assay [1] (1.0 mg./kg. p.o., p < 0.01), 96%; in assay [1] (10.0 mg./kg. p.o., p < 0.01) it was 94%. Also, the Oedema inhibition in assay [1] (0.05 mg./kg. p.o.) worked out at 19%; in assay [1] (0.1 mg./kg. p.o., p < 0.05) it was 45%; in assay [1] (10.0 mg./kg. p.o., p < 0.01), 95%. In addition, the Oedema came out at 307 ± 42 mg in assay [1] (0.05 mg./kg. p.o., N 8); 209 ± 51 mg in assay [1] (0.1 mg./kg. p.o., N 10); 72 ± 28 mg in assay [1] (1.0 mg./kg. p.o., N 12); 22 ± 12 mg in assay [1] (10.0 mg./kg. p.o., N 12). The ED50 in assay [1] (setting [5]) turned out to be 0.2 mg/kg; in assay [1] (setting [6]), 0.1 mg/kg. Moreover, in assay [1] (indomethacin pre-treatment), the “gastrocytoprotective activity after indomethacin pre-treatment” value is recorded as “not eliminated by indomethacin pre-treatment”. In addition, in assay [1] (versus gastric acid secretion inhibition), the “gastrocytoprotective activity, selectivity in words” value is “selective gastrocytoprotective activity”. The “Inhibition (of ulceration)” value in assay [2] (aspirin 100 + test compound 1 mg./kg.p.o.) is 38%; in assay [2] (aspirin 100 + test compound 2 mg./kg.p.o.), 47%; in assay [2] (aspirin 100 + test compound 10 mg./kg.p.o.) it was 76%. The Ulcer/Stomach in assay [2] (aspirin 100 + test compound 1 mg./kg.p.o., N 20) is 9.4 + 4.1; in assay [2] (aspirin 100 + test compound 2 mg./kg.p.o., N 10) it was 8.0 + 3.0; in assay [2] (aspirin 100 + test compound 10 mg./kg.p.o., N 10) it was 3.7 + 4.5. Also, the “Secretion HCl inhibition” value is 37% with Gastric acid secretion (5 mg./kg. p.o.); 11% in the assay with Gastric acid secretion (6 mg./kg. i.p.); 38% in the assay with Gastric acid secretion (10 mg./kg. p.o.); 65% in the assay with Gastric acid secretion (12 mg./kg. i.p., p < 0.01); 34% in the assay on Gastric acid secretion (20 mg./kg. p.o.); 100% in the assay on Gastric acid secretion (25 mg./kg. i.p.). In addition, in the assay on Gastric acid secretion (40 mg./kg. p.o., p < 0.01), the “Secretion HCl inhibition” value is reported as 70%. In addition, the “Secretion HCl/4 hours” value in the assay on Gastric acid secretion (5 mg./kg. p.o., N 5) is 357 ± 35 μmol/100 g body weight; with Gastric acid secretion (6 mg./kg. i.p., N 5), 505 ± 29 μmol/100 g body weight; with Gastric acid secretion (10 mg./kg. p.o., N 15), 350 ± 38 μmol/100 g body weight; with Gastric acid secretion (12 mg./kg. i.p., N 10) it was 200 ± 30 μmol/100 g body weight; in the assay on Gastric acid secretion (20 mg./kg. p.o., N 15), 372 ± 40 μmol/100 g body weight; in the assay on Gastric acid secretion (25 mg./kg. i.p., N 5), 0 μmol/100 g body weight. Moreover, the “Secretion HCl/4 hours” value in the assay on Gastric acid secretion (40 mg./kg. p.o., N 5) is recorded as 124 ± 27 μmol/100 g body weight. Besides, the “higher dose at which gastric acid secretion inhibiting activity was observed (relative to gastrocytoprotective dose)” value in the assay on Gastric acid secretion (selectivity of cytoprotection over acid secretion inhibition) was “about 500 times”. Besides, the “Intestinal ulcer” value turned out to be 162 ± 14 mmHg in the assay on Intestinal ulcer (setting [8]) and 198 ± 9 mmHg with Intestinal ulcer (setting [3]).
